Earlier results, collected in patent EP4659596A1 (Nicoventures Trading Limited, priority 2024, dated 2025).

Conditions: partition coefficient between octanol and water; organic acids of Table 1

Which logP does the source give for isopropyl benzoic acid here?
The logP was 3.5.

With ethyl benzoic acid as the compound, how does the logP read?
Its logP is 2.9.

With CC(C)[C@@H]1CC[C@@H](C)C[C@H]1OC(=O)CCC(=O)O [monomenthyl succinate] as the compound, how does the logP read?
Its logP is 3.
